Reference: patent US7579356B2, “Thia-tetraazaacenaphthylene kinase inhibitors” (Janssen Pharmaceutica NV, priority 2005, dated 2009)

How the values were obtained:
HER-2 = target: T1, HER-2 (Homo sapiens, UniProt P04626); assay: HER-2 Kinase Assay; type: biochemical; conditions: value in parentheses
T1 construct: His6 with thrombin site (N); purchased Proqinase (Freiburg, Germany)
Experimental: The HER-2 kinase used was purified at Proqinase (Freiburg, Germany) from a construct that consisted of a fusion of GST (Glutathione-S-Transferase), HIS6-Thrombin and the nucleotides encoding amino acids 679 to 1255 of HER-2 (Accession Number M11730).
A mixture of a 10× kinase reaction buffer (600 mM Hepes at pH 7.5, 30 mM Magnesium Chloride, 0.03 mM Sodium Vanadate and 500 μg/mL PEG 20,000), DTT (1.2 mM final from a 10 mM stock), APT (1 μM from a 10 mM stock), biotinylated polyGluTyr (1.5 ng/μL final from stock of 1 μg/μL) prepared by Upstate Biotechnologies, Lake Placid, N.Y.), Manganese Chloride (3 mM final from a 1 M stock), γ-^33P-ATP (10 μCl/μL stock) and water (70 μL/well) was added to each well of a Streptavidin Flashplate (Cat. # SMP103, NEN, Boston, Mass.).
Test compound stock (1 μL) was added to the appropriate wells. Diluted GSTHER2 kinase (6.7 ng/μL diluted into 50 mM Tris-HCl at pH 8.0 and 0.1% bovine serum albumin) (30 μL) was added (total volume of 200 ng/well) to initiate the reactions.
The reaction plates were incubated at 30° C. for 1 hr. The reaction was terminated by aspirating the reaction mixture from the plate wells and washing the wells three times with a 1×PBS stop buffer (300 μL) and 100 mM EDTA. After the final wash, the same stop buffer (200 μL) was again added to the wells. The plates were then sealed and read on the TopCount scintillation counter.
The Her-2 inhibition values were derived according to the procedure described in Example 164 and are shown as percent in Table 4 at a test concentration of 1 μM. For those compounds with an IC50, the IC50 value in μM is shown in parentheses. For compounds with multiple test values, each value represents a separate assay result.

EGFR = target: T2, EGFR (Homo sapiens, UniProt P00533); assay: EGFR Kinase Assay; type: biochemical; conditions: for IC50: GST-EGFR, ATP 5 μM
T2 construct: The intracellular portion of EGFR started at nucleotide 2189 (corresponding to amino acid 667) and ended at the termination codon; made in house; host or cells: Sf9 insect cells (baculovirus)
T2 sequence (P00533 669-1210 limits assumed): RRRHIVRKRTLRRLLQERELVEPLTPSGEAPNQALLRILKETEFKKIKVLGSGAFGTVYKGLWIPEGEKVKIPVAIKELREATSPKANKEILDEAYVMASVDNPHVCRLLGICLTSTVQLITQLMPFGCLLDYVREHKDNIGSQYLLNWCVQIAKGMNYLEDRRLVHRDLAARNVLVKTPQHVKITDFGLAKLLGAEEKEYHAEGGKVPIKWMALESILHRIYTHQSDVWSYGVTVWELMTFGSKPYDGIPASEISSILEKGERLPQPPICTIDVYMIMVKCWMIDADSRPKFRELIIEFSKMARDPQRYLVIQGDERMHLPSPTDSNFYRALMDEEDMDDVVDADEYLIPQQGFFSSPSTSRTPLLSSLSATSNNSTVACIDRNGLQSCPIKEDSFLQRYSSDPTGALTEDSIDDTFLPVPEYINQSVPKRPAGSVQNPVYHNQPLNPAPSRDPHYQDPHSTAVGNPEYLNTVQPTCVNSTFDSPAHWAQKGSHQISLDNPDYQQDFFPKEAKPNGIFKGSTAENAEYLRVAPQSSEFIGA
Text: The EGFR kinase used was a fusion of Glutathione-S-Transferase (GST) and a PCR amplified intracellular portion of EGFR (Accession Number NM_005228). The intracellular portion of EGFR started at nucleotide 2189 (corresponding to amino acid 667) and ended at the termination codon. The portion was PCR amplified with primers that added the lambda attB sequences to each end, recombined into an entry vector, then into a GST destination vector (as described in Gateway Technologies Manual by Invitrogen Corporation, Carlsbad, Calif.).
The destination vector was recombined in the DH10BAC strain of bacteria to produce a bacmid. The bacmid was transfected into Sf 9 cells and the supernatant containing the baculovirus was collected. The GSTEGFR protein was purified using large cultures of Sf 9 cells infected with stock virus. After an appropriate period of time, the cells were collected and lysed. The GSTEGFR was then purified from the lysate on Glutathione-Sepharose columns (as described by Amersham Biosciences, Buckinghamshire, United Kingdom).
The EGFR substrate was prepared by biotinylating polyGluTyr (128 mg) (Sigma, St. Louis, Mo.) in a 1×PBS buffer incubated together with a 12-fold molar excess of Sulfo-NHS-LC-Biotin on ice for at least 2 hrs. The free biotin was separated from the biotinylated polyGluTyr on a gel filtration column.
A mixture of a 10× kinase buffer (500 mM Tris at pH 8.0, 100 mM Magnesium Chloride and 1 mM Sodium Vanadate), DTT (1 mM final from 500 mM stock), ATP (5 μM final from 10 mM stock), biotinylated polyGluTyr (10 μg/μL stock), γ-^33P ATP (10 μCl/μL stock) and water was added to each well (for a total of 90 μL/well) of a Streptavidin Flashplate (Perkin Elmer, Wellesley, Mass.).
Test compound in 100% DMSO (2 μL) was added to the appropriate wells. Diluted GSTEGFR (1:300 dilution in 50 mM Tris at pH 8.0 and 0.1% bovine serum albumin) (10 μL) was added to the wells to initiate the reactions.
The plates were incubated at 30° C. for 1 hr with shaking. The reacted contents were removed and the plates were sequentially washed three times with a 1×PBS stop buffer (300 μL without Magnesium and Calcium) and 100 mM EDTA. After the final wash, the same stop buffer (200 μL) was added to the wells. The plates were then sealed and read on the TopCount scintillation counter.
Test compounds were assayed in triplicate at 16 concentrations at half-log dilutions starting at 200 uM. A maximum and minimum signal for the assay was determined on each plate. The percent inhibition of a test compound was calculated according to the formula: […]
For a series of test concentrations, the IC50 was derived by graphing percent inhibition against the log of the concentrations tested for a given compound. For those compounds without an IC50, the inhibition values in percent are shown at a test concentration of 2 μM. For compounds with multiple values, each value represents a separate assay result.

T1 sequence (P04626 679-1255): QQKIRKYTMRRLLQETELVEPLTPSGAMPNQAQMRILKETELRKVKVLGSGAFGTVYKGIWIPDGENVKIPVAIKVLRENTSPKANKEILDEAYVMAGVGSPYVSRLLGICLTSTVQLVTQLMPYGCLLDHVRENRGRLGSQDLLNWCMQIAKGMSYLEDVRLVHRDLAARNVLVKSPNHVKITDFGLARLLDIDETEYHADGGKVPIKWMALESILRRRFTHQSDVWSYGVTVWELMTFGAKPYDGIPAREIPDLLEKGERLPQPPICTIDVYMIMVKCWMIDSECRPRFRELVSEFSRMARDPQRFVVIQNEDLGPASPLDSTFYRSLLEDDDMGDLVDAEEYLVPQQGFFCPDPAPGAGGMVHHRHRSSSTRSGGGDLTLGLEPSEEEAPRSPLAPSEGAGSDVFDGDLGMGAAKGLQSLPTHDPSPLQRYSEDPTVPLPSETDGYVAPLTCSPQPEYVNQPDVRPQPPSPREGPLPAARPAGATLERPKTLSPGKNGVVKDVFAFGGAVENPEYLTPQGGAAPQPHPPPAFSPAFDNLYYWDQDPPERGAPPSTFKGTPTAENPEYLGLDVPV

Row | SMILES | IC50 (HER-2) [nM] | IC50 (EGFR) [nM] | inhibition at 2 µM (EGFR; test concentration of 2 μM, compounds without an IC50, read-out: EGFR inhibition in percent) [%]
1 | O=C(Nc1ccc(C(O)CN2CCOCC2)cc1)c1sc2ncnc3c2c1NC(=O)N3c1ccc(Oc2ccccc2)cc1 (centres unmarked) [Cpd 174, 4-oxo-5-(4-phenoxy-phenyl)-4,5-dihydro-3H-1-thia-3,5,6,8-tetraaza-acenaphthylene-2-carboxylic acid [4-(1-hydroxy-2-morpholin-4-yl-ethyl)-phenyl]-amide] | 818 | 18 | 
2 | CCOC(=O)c1sc2ncnc3c2c1NC(=O)N3C(C)c1ccc(Br)cc1 (centres unmarked) [Cpd 179, 5-[1-(4-bromo-phenyl)-ethyl]-4-oxo-4,5-dihydro-3H-1-thia-3,5,6,8-tetraaza-acenaphthylene-2-carboxylic acid ethyl ester] | > 100000 |  | 0.7
3 | O=C(Nc1ccc(CN2CCOCC2)cc1)c1sc2ncnc3c2c1NC(=O)N3c1ccc(OCc2ccccn2)c(Br)c1 [Cpd 180, 5-[3-bromo-4-(pyridin-2-ylmethoxy)-phenyl]-4-oxo-4,5-dihydro-3H-1-thia-3,5,6,8-tetraaza-acenaphthylene-2-carboxylic acid (4-morpholin-4-ylmethyl-phenyl)-amide] | 112 | 95 | 
4 | COc1ccc(N2C(=O)Nc3c(C(=O)Nc4ccc(CN5CCOCC5)c(OC)c4)sc4ncnc2c34)cc1Br [Cpd 183, 5-(3-bromo-4-methoxy-phenyl)-4-oxo-4,5-dihydro-3H-1-thia-3,5,6,8-tetraaza-acenaphthylene-2-carboxylic acid (3-methoxy-4-morpholin-4-ylmethyl-phenyl)-amide] | 980 | 420 | 
5 | O=C(Nc1ccc(CN2CCOCC2)cc1)c1sc2ncnc3c2c1NC(=O)N3c1ccc(Oc2ccccc2)c(Br)c1 [Cpd 187, 5-(3-bromo-4-phenoxy-phenyl)-4-oxo-4,5-dihydro-3H-1-thia-3,5,6,8-tetraaza-acenaphthylene-2-carboxylic acid (4-morpholin-4-ylmethyl-phenyl)-amide] | 248 | 121 | 
6 | O=C(Nc1ccc(CN2CCCCC2)cc1)c1sc2ncnc3c2c1NC(=O)N3c1ccc(Oc2ccccc2)c(Br)c1 [Cpd 188, 5-(3-bromo-4-phenoxy-phenyl)-4-oxo-4,5-dihydro-3H-1-thia-3,5,6,8-tetraaza-acenaphthylene-2-carboxylic acid (4-piperidin-1-ylmethyl-phenyl)-amide] | 83 | 49 | 
7 | COc1cc(NC(=O)c2sc3ncnc4c3c2NC(=O)N4c2ccc(Oc3ccccc3)c(Br)c2)ccc1CN1CCOCC1 [Cpd 189, 5-(3-bromo-4-phenoxy-phenyl)-4-oxo-4,5-dihydro-3H-1-thia-3,5,6,8-tetraaza-acenaphthylene-2-carboxylic acid (3-methoxy-4-morpholin-4-ylmethyl-phenyl)-amide] | 72 | 83 | 

Continued, values first:

Row | IC50 (HER-2) [nM] | IC50 (EGFR) [nM] | inhibition at 2 µM (EGFR; test concentration of 2 μM, compounds without an IC50, read-out: EGFR inhibition in percent) [%] | SMILES
8 | 155 | 23 |  | O=C(Nc1ccc(CN2CCCCC2)cc1)c1sc2ncnc3c2c1NC(=O)N3c1ccc(Oc2cccc(F)c2)c(Cl)c1 [Cpd 160, 5-[3-chloro-4-(3-fluoro-phenoxy)-phenyl]-4-oxo-4,5-dihydro-3H-1-thia-3,5,6,8-tetraaza-acenaphthylene-2-carboxylic acid (4-piperidin-1-ylmethyl-phenyl)-amide]
9 | 699 | 23 |  | COc1cc(NC(=O)c2sc3ncnc4c3c2NC(=O)N4c2ccc(Oc3cccc(F)c3)c(Cl)c2)ccc1OCCN1CCCCC1 [Cpd 161, 5-[3-chloro-4-(3-fluoro-phenoxy)-phenyl]-4-oxo-4,5-dihydro-3H-1-thia-3,5,6,8-tetraaza-acenaphthylene-2-carboxylic acid [3-methoxy-4-(2-piperidin-1-yl-ethoxy)-phenyl]-amide]
10 | 82 | 26 |  | O=C(Nc1ccc(CN2CCOCC2)cc1)c1sc2ncnc3c2c1NC(=O)N3c1ccc(Oc2cccc(F)c2)c(Cl)c1 [Cpd 162, 5-[3-chloro-4-(3-fluoro-phenoxy)-phenyl]-4-oxo-4,5-dihydro-3H-1-thia-3,5,6,8-tetraaza-acenaphthylene-2-carboxylic acid (4-morpholin-4-ylmethyl-phenyl)-amide]
11 | 1500 | 75 |  | CN1CCC(NC(=O)c2sc3ncnc4c3c2NC(=O)N4c2ccc3c(cnn3Cc3cccc(F)c3)c2)CC1 [Cpd 177, 5-[1-(3-fluoro-benzyl)-1H-indazol-5-yl]-4-oxo-4,5-dihydro-3H-1-thia-3,5,6,8-tetraaza-acenaphthylene-2-carboxylic acid (1-methyl-piperidin-4-yl)-amide]
12 | 2190 | 887 |  | COc1ccc(N2C(=O)Nc3c(C(=O)Nc4ccc(CN5CCOCC5)cc4)sc4ncnc2c34)cc1Br [Cpd 181, 5-(3-bromo-4-methoxy-phenyl)-4-oxo-4,5-dihydro-3H-1-thia-3,5,6,8-tetraaza-acenaphthylene-2-carboxylic acid (4-morpholin-4-ylmethyl-phenyl)-amide]
13 | 1680 | 880 |  | COc1ccc(N2C(=O)Nc3c(C(=O)Nc4ccc(CN5CCCCC5)cc4)sc4ncnc2c34)cc1Br [Cpd 182, 5-(3-bromo-4-methoxy-phenyl)-4-oxo-4,5-dihydro-3H-1-thia-3,5,6,8-tetraaza-acenaphthylene-2-carboxylic acid (4-piperidin-1-ylmethyl-phenyl)-amide]
14 | 79 | 17 |  | COc1cc(NC(=O)c2sc3ncnc4c3c2NC(=O)N4c2cccc(Br)c2)ccc1CN1CCOCC1 [Cpd 184, 5-(3-bromo-phenyl)-4-oxo-4,5-dihydro-3H-1-thia-3,5,6,8-tetraaza-acenaphthylene-2-carboxylic acid (3-methoxy-4-morpholin-4-ylmethyl-phenyl)-amide]
15 | 62 | 18 |  | CN1CCC(NC(=O)c2sc3ncnc4c3c2NC(=O)N4c2ccc(Sc3ccccc3)cc2)CC1 [Cpd 191, 4-oxo-5-(4-phenylsulfanyl-phenyl)-4,5-dihydro-3H-1-thia-3,5,6,8-tetraaza-acenaphthylene-2-carboxylic acid (1-methyl-piperidin-4-yl)-amide]
16 | > 1000 | 410 |  | O=C(Nc1ccc(CN2CCCCC2)cc1)c1sc2ncnc3c2c1NC(=O)N3c1ccc2nc(Cc3cccc(F)c3)[nH]c2c1 [Cpd 192, 5-[2-(3-fluoro-benzyl)-3H-benzoimidazol-5-yl]-4-oxo-4,5-dihydro-3H-1-thia-3,5,6,8-tetraaza-acenaphthylene-2-carboxylic acid (4-piperidin-1-ylmethyl-phenyl)-amide]
